Entries after “also recorded” stand apart in the source; their conditions may differ.

Holding throughout (type): cell-based, cow
Test [1] has as its system mammary epithelial cells. The experiment in a line: Cellular triglyceride and phospholipid content and composition by HPLC-ELSD after 24 h progesterone. On the procedure: To examine the effect of progesterone on MFG formation, secretion and size, the culture medium was supplemented with very low-density lipoprotein (VLDL) and progesterone at different concentrations (0, 1, 5 and 20 ng/ml). Progesterone concentrations were based on those found in the plasma during the luteal and follicular phases in vivo. After 24 h, cells were either fixed for lipid droplet size analysis (detailed below (or harvested with trypsin (0.05% w/v), sedimented by centrifugation, and washed with 0.9 gr/L NaCl.
For lipid extraction and analysis, 150,000 MEC were plated in a 60-mm plastic dish. For Nile red fluorescence staining, 50,000 MEC were plated in a 6-well plate on glass cover slips. After 24 h incubation, the culture medium was replaced with DMEM/F12 without serum, containing 0.15% (w/v) free fatty acids-free BSA and insulin (1 μg/ml), hydrocortisone (0.5 μg/ml) and prolactin (1 μg/ml). Cells were incubated for 48 h to induce milk lipid and protein synthesis.
(§1) Lipids were extracted by the Folch protocol. Briefly, each cell sample was incubated for 1 h with “Folch mixture” (chloroform:methanol, […] volumetric ratio). The organic phase was separated by addition of double-distilled water (DDW) and overnight incubation at 4° C. The upper phase was then removed, and the lower phase filtered through glass wool. The lower phase was evaporated under nitrogen and then dissolved in chloroform:methanol (3:97). Samples were kept at −20° C. until further analysis.
High-pressure liquid chromatography (HPLC) was performed in an HPLC 1200 (Agilent Technology) equipped with evaporative light-scattering detector. Tg, cholesterol and PL were identified using external standards (Sigma Aldrich). Quantification was performed against external standard curves and expressed as μg/106 live cells or as weight % of the total PL (μg) in the sample. The number of live cells was determined with a hemocytometer after Trypan blue staining.

Test [2] deals with mammary epithelial cells. Briefly: Lipid droplet number and size in primary mammary epithelial cells incubated 24 h with fixed progesterone concentrations (Nile red/DAPI fluorescence microscopy). The method, then:
Epithelial cells were isolated for mammary biopsies according to the method described in [3]. Cells were incubated for 24 h with 0, 1, 5, and 20 ng/ml progesterone. Cells were then fixed with 4% paraformaldehyde and nucleus and lipid droplets were stained with Dapi and Nile red (Sigma Aldrich, Israel), respectively. Four slides were prepared for each treatment and were visualized with an Olympus BX40 fluorescence microscope equipped with an Olympus DP73 digital camera using CellSens Entry software version 1.7. The lipid droplets of 6-10 cells on each slide were counted and measured using ImageJ software. The experiment was repeated twice. For the in-vitro study, primary culture of MEC was performed according to a protocol established described in [1]. Briefly, mammary tissue was collected from lactating cows in a commercial slaughterhouse and immediately transferred to ice-cold growth medium with 1000 U/ml penicillin, 1 mg/ml streptomycin, 2.5 μg/ml amphotericin mixture, and 0.02 mg/ml heparin. Mammary tissue was digested in medium with 1 mg/ml collagenase, 1 mg/ml hyaluronidase and 0.02 mg/ml heparin, for 3 h at 37° C. After incubation, the suspension was filtered through a metal mesh (250 μm). Sediments were treated with trypsin-EDTA solution and filtered through a 100-μm cell strainer (BD Falcon, Bedford, MA). Then, the cells were grown in plastic culture dishes with DMEM/F12 supplemented with 10% (w-/v) fetal bovine serum, 100 U/ml penicillin, 100 μg/ml streptomycin, 0.25 μg/ml amphotericin B, 1 μg/ml insulin and […] hydrocortisone. The medium was changed every 48 h. To examine the effect of progesterone on MFG formation, secretion and size, the culture medium was supplemented with very low-density lipoprotein (VLDL) and progesterone at different concentrations (0, 1, 5 and 20 ng/ml). Progesterone concentrations were based on those found in the plasma during the luteal and follicular phases in vivo. After 24 h, cells were either fixed for lipid droplet size analysis (detailed below (or harvested with trypsin (0.05% w/v), sedimented by centrifugation, and washed with 0.9 gr/L NaCl. For lipid extraction and analysis, 150,000 MEC were plated in a 60-mm plastic dish. For Nile red fluorescence staining, 50,000 MEC were plated in a 6-well plate on glass cover slips. After 24 h incubation, the culture medium was replaced with DMEM/F12 without serum, containing 0.15% (w/v) free fatty acids-free BSA and insulin (1 μg/ml), hydrocortisone (0.5 μg/ml) and prolactin (1 μg/ml). Cells were incubated for 48 h to induce milk lipid and protein synthesis. Cells were grown on glass cover slips, washed three times with phosphate buffered saline (PBS) and fixed with 4% paraformaldehyde in PBS for 20 min at room temperature. Then the cells were washed four times with PBS, stained with Nile red (200 nM) and incubated for 15 min. Cover slips were then washed three times with PBS and stained with DAPI for 5 min. Cover slips were washed four more times with PBS and mounted on a slide with fluorescent mounting medium (Dako North America Inc., Carpinteria, CA). The slides were visualized under an Olympus BX40 fluorescence microscope equipped with an Olympus DP73 digital camera using CellSens Entry software (version 1.7, Olympus). Lipid droplet diameter was measured using ImageJ software (version 1.48, NIH, Bethesda, MD). Lipid droplet diameter was divided into three size categories: small (<1 μm), medium (1 μm<x<2 μm) and large (>2 μm).

Test [3] concerns mammary epithelial cells. Briefly: Increasing or decreasing progesterone concentrations with or without VLDL in the culture medium: lipid droplet number and cellular phenotype. The method, then: To determine whether the effect of progesterone on lipid droplet size is mediated by the presence of VLDL, a b-factorial experiment was performed. MEC were cultured with increasing or decreasing progesterone concentrations in the presence or absence of VLDL in the culture medium. This study was aimed to provide indirect evidence of lipoprotein lipase (LPL) activity, acting on VLDL and providing the MEC with exogenous, preformed fatty acids. After 48 h of incubation, cells were fixed and stained with Nile red and intracellular lipid droplet size was determined. Cells were grown on glass cover slips, washed three times with phosphate buffered saline (PBS) and fixed with 4% paraformaldehyde in PBS for 20 min at room temperature. Then the cells were washed four times with PBS, stained with Nile red (200 nM) and incubated for 15 min. Cover slips were then washed three times with PBS and stained with DAPI for 5 min. Cover slips were washed four more times with PBS and mounted on a slide with fluorescent mounting medium (Dako North America Inc., Carpinteria, CA). The slides were visualized under an Olympus BX40 fluorescence microscope equipped with an Olympus DP73 digital camera using CellSens Entry software (version 1.7, Olympus). Lipid droplet diameter was measured using ImageJ software (version 1.48, NIH, Bethesda, MD). Lipid droplet diameter was divided into three size categories: small (<1 μm), medium (1 μm<x<2 μm) and large (>2 μm).

Test [4] relates to mammary epithelial cells. Briefly: Fatty acid distribution between triglyceride and phospholipid fractions (TLC and gas chromatography) after 24 h progesterone. On the procedure: as §1
Lipid separation was performed by thin-layer chromatography and gas chromatography analysis. For the thin-layer chromatography, silica gel was spread on glass plates and activated at 105° C., 24 h before the analysis. After cooling, the cell samples, extracted by Folch protocol, were loaded into the plates along with triglyceride (Tg) and phospholipids (PL) standards. The plates were inserted into a tank with a mixture of petroleum ether, […] and acetic acid (8:2:1 volometric ratio) for 30 min, then sprayed with 0.05% v/v dichlorofluorescein in ethanol) and examined under UV light. The detected lipid segments were then separated from the plates into methylation mixture (5% v/v H2SO4 in methanol) for 1 h incubation at 65° C. Then, 1.5 ml petroleum-ether and 3 ml DDW were added to each sample. The upper phase was collected into a new vial and the organic solvent was evaporated with nitrogen. Then 100 μl petroleum-ether was added to each sample for fatty acid analysis in a gas chromatograph model 6890N, equipped with a flame-ionization detector and DB-23 capillary silica (0.25-μm film; Agilent Technology, Wilmington, DE). The analysis was performed according to a protocol established as described in [18]. Peaks were identified with Chemstation software (Agilent Technology). The concentrations of fatty acids are given as molar percentages of the total molar sum of the identified fatty acids. Fatty acids were classified according to chemical characteristics such as double bonds and carbon-chain length.

In test [5] the test system is mammary epithelial cells. The experiment in a line: Lipid droplet number and size in primary mammary epithelial cells exposed 48 h to increasing or decreasing progesterone concentrations. On the procedure:
The effect of progesterone concentration pattern during the estrous cycle on lipid droplet size was also tested. Primary mammary epithelial cells were exposed for 48 h to either increasing (0.75, 2.5 and 5 ng/ml) progesterone concentrations or decreasing (5, 2.5 and 0.75 ng/ml) progesterone concentrations. The concentrations were increased or decreased at specific times to reflect the progesterone pattern during the increasing and decreasing phases of the estrus cycle, i.e. the cells were exposed to increasing concentrations of 0.75, 2.5 and 5 ng/ml progesterone at 0, 17 and 28 h, respectively and cells were exposed to decreasing concentrations of 5, 2.5 and 0.75 ng/ml progesterone at 0, 28 and 34 h, respectively. Cells were then fixed and stained with nile-red. Four slides were prepared for each treatment and lipid droplets were counted and measured under fluorescence microscope. The experiment was repeated twice.
For the in-vitro study, primary culture of MEC was performed according to a protocol established described in [1]. Briefly, mammary tissue was collected from lactating cows in a commercial slaughterhouse and immediately transferred to ice-cold growth medium with 1000 U/ml penicillin, 1 mg/ml streptomycin, 2.5 μg/ml amphotericin mixture, and 0.02 mg/ml heparin. Mammary tissue was digested in medium with 1 mg/ml collagenase, 1 mg/ml hyaluronidase and 0.02 mg/ml heparin, for 3 h at 37° C. After incubation, the suspension was filtered through a metal mesh (250 μm). Sediments were treated with trypsin-EDTA solution and filtered through a 100-μm cell strainer (BD Falcon, Bedford, MA). Then, the cells were grown in plastic culture dishes with DMEM/F12 supplemented with 10% (w-/v) fetal bovine serum, 100 U/ml penicillin, 100 μg/ml streptomycin, 0.25 μg/ml amphotericin B, 1 μg/ml insulin and […] hydrocortisone. The medium was changed every 48 h.
To determine whether the absolute progesterone concentration or its pattern (i.e., increasing or decreasing) affects MFG, cells were treated for 48 h with increasing doses of progesterone: 0.75, 2.5 and 5 ng/ml. The culture medium was replaced after 11, 17, and 20 h, respectively, aimed to mimic the in-vivo luteal phase. The decreasing phase consisted of exposure to 5, 2.5 and 0.75 ng/ml progesterone. Culture medium was replaced after 8, 12 and 28 h, respectively, to mimic the follicular phase.
Cells were grown on glass cover slips, washed three times with phosphate buffered saline (PBS) and fixed with 4% paraformaldehyde in PBS for 20 min at room temperature. […] The slides were visualized under an Olympus BX40 fluorescence microscope equipped with an Olympus DP73 digital camera using CellSens Entry software (version 1.7, Olympus). Lipid droplet diameter was measured using ImageJ software (version 1.48, NIH, Bethesda, MD). […]

As for `CC(=O)[C@H]1CC[C@H]2[C@@H]3CCC4=CC(=O)CC[C@]4(C)[C@H]3CC[C@]12C` [progesterone], in the test with mammary epithelial cells [1] (0, 1, 5 and 20 ng/ml progesterone, 24 h), the “membrane PL composition (PI, PE, PS, PC, SM)” value is “did not affect”. Further, the “concentration of Tg (cellular triglyceride content)” value in the test on mammary epithelial cells [1] (0, 1, 5 and 20 ng/ml progesterone, 24 h, FIG. 17A) is reported as “not affected by progesterone”. Also, the “increase in concentration of the measured PL” value with mammary epithelial cells [1] (1 ng/ml compared to 0, 5 and 20 ng/ml progesterone, 24 h, P<0.05) is reported as “approximately 1.3 fold”. Moreover, in the test with mammary epithelial cells [1] (5 ng/ml progesterone, 24 h, P<0.05), the PL amount result is listed as “tended to decrease”. Moreover, the “PC concentration (elevated)” value with mammary epithelial cells [1] (progesterone 24 h, apparently the 1 ng/ml treatment, P<0.05) was determined as 20 μg/106 cells. In the test with mammary epithelial cells [2] (0, 1 or 20 ng/ml progesterone, 24 h), the “proportion of large droplets (>1 μm)” value is not above 20%. The “proportion of droplets larger than 1 μm” value in the test on mammary epithelial cells [2] (5 ng/ml progesterone, 24 h) is “over 40%”. The “number of lipid droplets” value in the test on mammary epithelial cells [2] (5 ng/ml progesterone, 24 h, vs control) was “did not differ from the control”; in the test on mammary epithelial cells [2] (1 or 20 ng/ml progesterone, 24 h, vs control (no progesterone), P<0.0001), 3.5 fold. The “rate of large droplets (>1 μm)” value with mammary epithelial cells [2] (20 ng/ml progesterone, 24 h) is listed as 6.5%. For the same compound, the “number of large lipid droplets (>1 μm) per cell” value in the test with mammary epithelial cells [2] (1 and 5 ng/ml progesterone, 24 h, relative to control (0 ng/ml), FIG. 3) is reported as “higher number of large lipid droplets”. Also, the “proportion of large lipid droplets (X≥1 μm)” value with mammary epithelial cells [2] (1 and 5 ng/ml relative to 20 ng/ml progesterone, FIG. 4, P<0.0001) is reported as “higher”. Besides, in the test with mammary epithelial cells [3] (absence of VLDL), the “differences in lipid droplet number and cellular phenotype between increasing and decreasing progesterone” value was “no differences were found”. Moreover, in the test with mammary epithelial cells [3] (decreasing progesterone concentration model with VLDL, P<0.0001), the “increase in MEC with large lipid droplets (>1 μm)” value stood at 4 fold. The “increase in proportion of MEC with small lipid droplets (<1 μm)” value with mammary epithelial cells [3] (increasing progesterone concentration model with VLDL) came out at 2.4 fold. Further, the “average number of lipid droplets per field” value in the test with mammary epithelial cells [3] (increasing progesterone concentration with VLDL vs other treatments, FIG. 20B, P<0.0001) is “Highest number of lipid droplets”. The “distribution of stearic acid (C18:0) between Tg and PL” value with mammary epithelial cells [4] (1 ng/ml progesterone) is reported as “higher in the PL compartment; also recorded: found primarily in the membrane”. For the same compound, in the test on mammary epithelial cells [4] (5 ng/ml progesterone), the “distribution of stearic acid between Tg and membrane” value is given as “mostly incorporated into the Tg”. Further, in the test on mammary epithelial cells [4] (5 ng/ml progesterone, P<0.05), the “concentration of lignoceric acid (C24:0), Tg vs PL” value is recorded as “higher in the PL compartment”. For the same compound, the “proportion of large lipid droplets (>2 μm) of the total number of lipid droplets” value with mammary epithelial cells [5] (decreasing ('down') compared to increasing ('up') progesterone concentrations, 48 h, FIG. 6, P=0.03) is recorded as 2 fold. Moreover, the “increase in the number of lipid droplets” value in the test on mammary epithelial cells [5] (increasing (0.75, 2.5, 5 ng/ml, 'up') relative to decreasing (5, 2.5, 0.75 ng/ml, 'down') progesterone, 48 h, FIG. 5, P<0.0001) turned out to be 5.5 fold. Also, in the test on mammary epithelial cells [5] (increasing progesterone concentration 'compared to the increasing progesterone pattern' (so in the source), P<0.0001), the “increase in the large lipid droplets” value turned out to be 3 fold. Moreover, the “large lipid droplet phenotype (cells with droplets x>1 μm)” value in the test with mammary epithelial cells [5] (increasing vs decreasing progesterone, FIG. 19C) was “only visualized in cells treated with increasing progesterone levels”.

(Values after patent publication US12504393B2, “Method and system for determining the progesterone-associated physiological state of lactating cows” (Yissum Research Development Company of the Hebrew …, priority 2020, dated 2025).)
